Measured values from patent US20100210537A1, “USE OF A DEFENSIN PEPTIDE AS A THERAPEUTIC AGENT” (priority 2007, published 2010).
Where no end group is shown, it is not given here.

Legend:
HIV-1IIIB = assay: HIV-1 antiviral assay in CEM-SS cells (MTS readout); format: cell-based
HCMV strain AD169 = assay: HCMV plaque formation assay in MRC-5 cells; details: for inhibition of HCMV plaque formation as compared to the virus control experiment: 10 micrograms per ml, 7-10 days
[1] = test system: Primary Human endothelial cells (HUVEC); assay: Endothelial cell migration assay; format: cell-based; details: 10 micrograms per ml, 22 hours
Method: Thereafter, designated concentration of testing peptides-10 micrograms per ml-was added in duplicate wells.

[2] = test system: hepatitis B virus (HBV) ayw strain; assay: HBV assay in HepG2-2.2.15 cells (TaqMan PCR of secreted HBV DNA); format: cell-based; details: 10 micrograms per ml, six days
Text: HepG2-2.2.15 is a stable cell line containing the hepatitis B virus (HBV) ayw strain genome (ATCC Cat. No. CRL-11997). Antiviral compounds blocking any late step of viral replication such as transcription, translation, pregenome encapsidation, reverse transcription, particle assembly and release can be identified and characterized using this cell line. In this assay, an active compound will reduce the production of secreted HBV from cells, measured by utilizing real time quantitative PCR (TaqMan) assay to directly and accurately measure HBV DNA copies.
HepG2-2.2.15 cells were plated in 96-well microtiter plates. After 16-24 hours the confluent monolayer of HepG2-2.2.15 cells was washed and the medium was replaced with complete medium containing test peptides-10 micrograms per ml-in duplicate. […] Six days following the initial administration of the peptides, the cell culture supernatants was collected, treated with pronase and DNAse and then used in a real-time quantitative TaqMan PCR assay. The PCR-amplified HBV DNA was detected in real-time by monitoring increases in fluorescence signals that result from the exonucleolytic degradation of a quenched fluorescence probe molecule that hybridizes to the mplified HBV DNA. […] Antiviral activity was calculated from the reduction in HBV DNA levels (% virus control). […]

HUVEC = assay: Endothelial tube formation assay; format: cell-based, human; details: 10 micrograms per ml, 20 hours
Text: Positive control was vehicle only.

Interleukin-5 (IL-5) = assay: Th1/Th2 cytokine profiling assay: IL-5; format: cell-based, Balb/c mice; details: 10 micrograms per ml; Ovalbumin-restimulated spleen cells, 72 hours
Method: (§1) On day 50, spleens of the mice were harvested (3 weeks after last boost with Ovalbumin). Cells were cultured (2×10^5/well in triplicate) and incubated with culture medium or test peptides-10 micrograms per ml-for 30 min. Thereafter, additional Ovalbumin was added to the cells at 10 micrograms/ml for in vitro restimulation of the cells. 72 hours later, cell supernatants were harvested and assayed using the Becton Dickinson Mouse Th1/Th2 Cytokine CBA Kit.

Interleukin-4 (IL-4) = assay: Th1/Th2 cytokine profiling assay: IL-4; format: cell-based, Balb/c mice; details: 10 micrograms per ml; Ovalbumin-restimulated spleen cells, 72 hours
Method: as §1

[3] = test system: Tumor Necrosis Factor-α (TNF-α); assay: Th1/Th2 cytokine profiling assay: TNF-alpha; format: cell-based, Balb/c mice; details: 10 micrograms per ml; Ovalbumin-restimulated spleen cells, 72 hours
Method: as §1

Interferon-γ (IFN-γ) = assay: Th1/Th2 cytokine profiling assay: IFN-gamma; format: cell-based, Balb/c mice; details: 10 micrograms per ml; Ovalbumin-restimulated spleen cells, 72 hours
Method: as §1

Interleukin-2 (IL-2) = assay: Th1/Th2 cytokine profiling assay: IL-2; format: cell-based, Balb/c mice; details: 10 micrograms per ml; Ovalbumin-restimulated spleen cells, 72 hours
Method: as §1

Row | Compound | antiviral activity of positive control compounds (HIV-1IIIB) | antiviral activity of positive control compound (HCMV strain AD169; positive control, HCMV AD169) | inhibition of the migration of human endothelial cells [1] [%] | inhibition of HCMV plaque formation as compared to the virus control experiment (HCMV strain AD169) | inhibition of HBV replication as compared to the virus control infection [2] | inhibition of the tube formation of human endothelial cells (HUVEC) [%] | decrease of the production of IL-5 in murine spleen cells (Interleukin-5 (IL-5)) | decrease of the production of IL-4 in murine spleen cells (Interleukin-4 (IL-4)) | change of the production of TNF-alpha in murine spleen cells [3] | change of the production of IFN-gamma in murine spleen cells (Interferon-γ (IFN-γ)) | decrease of the production of IL-2 in murine spleen cells (Interleukin-2 (IL-2))
1 | Cc1cn([C@H]2C[C@H](N=[N+]=[N-])[C@@H](CO)O2)c(=O)[nH]c1=O [AZT] | expected levels of antiviral activity |  |  |  |  |  |  |  |  |  | 
2 | Nc1nc(O)c2ncn(COC(CO)CO)c2n1 [Ganciclovir, reference compound] |  | expected levels of antiviral activity |  |  |  |  |  |  |  |  | 
3 | CC(C)(C)NC(=O)[C@@H]1CN(Cc2cccnc2)CCN1C[C@@H](O)C[C@@H](Cc1ccccc1)C(=O)N[C@H]1c2ccccc2C[C@H]1O [indinavir] | expected levels of antiviral activity |  |  |  |  |  |  |  |  |  | 
4 | Cys-Tyr-Cys-Arg-Ile-Pro-Ala-Cys-Ile-Ala-Gly-Glu-Arg-Arg-Tyr-Gly-Thr-Cys-Ile-Tyr-Gln-Gly-Arg-Leu-Trp-Ala-Phe-Cys-Cys-OH (CYCRIPACIAGERRYGTCIYQGRLWAFCC-OH; cysteine pairing not given here) [Peptide 1] |  |  | 17 | did not inhibit | did not inhibit | 21 | 38.4% | 49.4% | did not significantly change | did not significantly change | 100%
5 | Ser-Glu-Ile-Trp-Arg-Asp-Ile-Asp-Phe-OH (SEIWRDIDF-OH) [Peptide 2] |  |  | 18 | did not inhibit | 21.6% | 19 | did not significantly change | did not significantly change | did not significantly change | did not significantly change | did not significantly change
